The values below come from the Kinase Knowledgebase extract (Sharma et al. 2016).

pIC50: −log10 of the molar value. Some results are limits rather than exact numbers.

Sequence of MAPK14 (Q16539 whole entry, looked up): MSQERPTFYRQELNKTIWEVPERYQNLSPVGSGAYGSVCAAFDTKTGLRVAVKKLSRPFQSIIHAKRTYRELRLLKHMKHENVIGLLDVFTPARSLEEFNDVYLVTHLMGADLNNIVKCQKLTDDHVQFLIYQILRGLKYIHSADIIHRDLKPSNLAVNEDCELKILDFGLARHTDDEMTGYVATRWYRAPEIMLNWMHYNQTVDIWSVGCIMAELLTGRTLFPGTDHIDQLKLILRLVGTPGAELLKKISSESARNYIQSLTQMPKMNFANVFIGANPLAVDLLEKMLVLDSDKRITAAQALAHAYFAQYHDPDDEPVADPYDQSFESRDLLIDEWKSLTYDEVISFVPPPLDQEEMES

One experiment addresses MAPK14 (UniProt Q16539). Description: p38-alpha Inhibition.
Details: not given
In turn, `c1ccc(-c2nc(NCc3ccncc3)c3ccccc3n2)cc1` gave a pIC50 of 6.10.
On the same count and under the same terms, with `Clc1ccccc1-c1nc(Nc2ccncc2)c2ccccc2n1` the figure was 6.10; with `COc1cccc(Nc2nc(-c3ccccc3)nc3ccccc23)c1`, 6.10; with `Brc1ccccc1-c1nc(Nc2ccncc2)c2ccccc2n1`, 6.10.
Take `Cc1ccccc1-c1nc(Nc2ccncc2)c2ccccc2n1`: the pIC50 was 6.10.
`c1ccc(-c2nc(Nc3ccncc3)c3ccccc3n2)cc1`: the pIC50 is 6.10.
`Fc1ccccc1-c1nc(Nc2ccncc2)c2ccccc2n1` had a pIC50 of 6.10.
In turn, `Nc1ccc2nc(-c3ccccc3F)nc(Nc3ccncc3)c2c1` had a pIC50 of 6.10.
Take `Fc1ccc(-c2nc(Nc3ccncc3)c3ccccc3n2)cc1`: the pIC50 is 6.10.

The experiment is the same for the next values; noted with them: concentration not given here.
As to `Nc1ccc2c(Nc3ccncc3)nc(-c3ccccc3F)nc2c1`, the inhibition is > 90%.
As to `COc1ccc(C(=O)Nc2ccc3nc(-c4ccccc4F)nc(Nc4ccncc4)c3c2)cc1`, the inhibition is > 90%.
Same read-out and setting: in the case of `O=[N+]([O-])c1ccc2nc(-c3ccccc3F)nc(Nc3ccncc3)c2c1` it was > 90%; in that of `COc1ccc(CNc2ccc3nc(-c4ccccc4F)nc(Nc4ccncc4)c3c2)cc1`, > 90%.
With `Nc1ccc2c(Nc3ccncc3)nc(-c3ccc(F)cc3)nc2c1`, the inhibition is > 90%.
On the same count and under the same terms, in the case of `COc1cccc(CNc2ccc3nc(-c4ccccc4F)nc(Nc4ccncc4)c3c2)c1` it was > 90%; in that of `CC(C)CNc1ccc2nc(-c3ccccc3F)nc(Nc3ccncc3)c2c1`, > 90%; in that of `COc1cccc(CNc2ccc3c(Nc4ccncc4)nc(-c4ccc(F)cc4)nc3c2)c1`, > 90%.
Still for that read-out and setting: in the case of `COc1cc2nc(-c3ccccc3Cl)nc(Nc3ccncc3)c2cc1OC` it was > 90%; in that of `CSc1ccc(CNc2ccc3nc(-c4ccccc4F)nc(Nc4ccncc4)c3c2)cc1`, > 90%; in that of `Nc1ccc2nc(-c3ccccc3F)nc(Nc3ccncc3)c2c1`, > 90%.
